Where two headings read alike, the source gives them in different places.
Experiments:
[1] = target: T1, c-Met kinase domain recombinant protein (Homo sapiens, UniProt P08581); assay: biochemical; conditions: for inhibition at 0.1 µM: read-out: Average inhibition rate at 0.1 μM (%); for inhibition at 1 µM: read-out: Average inhibition rate at 1 μM (%); for inhibition at 10 µM: read-out: Average inhibition rate at 10 μM (%)
T1 construct: 50 μL diluted solution of c-Met kinase domain recombinant protein in reaction buffer was added to initiate the reaction
T1 sequence (P08581 1078-1345 limits assumed): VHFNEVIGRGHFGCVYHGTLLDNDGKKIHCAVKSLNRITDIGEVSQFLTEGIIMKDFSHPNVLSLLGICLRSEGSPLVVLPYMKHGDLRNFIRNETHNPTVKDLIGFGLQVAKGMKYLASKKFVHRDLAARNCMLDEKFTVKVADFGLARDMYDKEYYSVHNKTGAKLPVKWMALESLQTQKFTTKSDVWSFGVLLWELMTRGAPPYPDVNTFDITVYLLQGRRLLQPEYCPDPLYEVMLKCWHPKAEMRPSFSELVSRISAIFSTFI
Procedure: (§1) Enzymatic reaction substrate Poly(Glu,Tyr)4:1 was diluted to 20 μg/mL in potassium ion free PBS (10 mM sodium phosphate buffer, 150 mM NaCl, pH7.2-7.4), microplate was coated with this solution at 125 μL per well, and reacted at 37° C. for 12-16 hours. Liquid in wells was discarded, then the plate was washed 3 times for 5 minutes each with 200 μL per well of T-PBS (PBS containing 0.1% Tween-20).
Into each well was added 50 μL diluted ATP solution in reaction buffer (50 mM HEPES pH 7.4, 50 mM MgCl2, 0.5 mM MnCl2, 0.2 mM Na3VO4, 1 mM DTT), the final concentration was 5 μM. Test compound was diluted in DMSO to proper concentration, added at 1 μL per well or corresponding level of DMSO (negative control wells), then 49 μL diluted solution of c-Met kinase domain recombinant protein in reaction buffer was added to initiate the reaction, each test was setup with two wells of ATP free control. Reaction was performed in a 37° C. shaker (100 rpm) for 1 hour. The plate was washed three times with T-PBS. Primary antibody PY99 diluted solution was added at 100 μL per well, incubated in a 37° C. shaker for 0.5 hour.
The plate was washed three times with T-PBS. Goat anti mouse secondary antibody labeled with horseradish peroxidase was added at 100 μL per well, incubated in a 37° C. shaker for 0.5 hour. The plate was washed three times with T-PBS. […] Reaction was terminated by adding 50 μL per well of 2M H2SO4, the plate was read at 490 nm using a SPECTRA MAX 190 microplate reader with tunable wavelength.
(§2) Inhibition rate of the sample was calculated using the following equation: […]
IC50 was calculated by fitting the data for a four parameter fit using inhibition curve.

[2] = target: T1, c-Met kinase domain recombinant protein; assay: biochemical; conditions: read-out: Inhibition rate at 10 μM (%)
Procedure: as §1, with “discarded. Plate washing:” for “discarded, then”, “(potassium ion free PBS” for “(PBS”
Into each well was added 49 μL diluted ATP solution in reaction buffer (50 mM HEPES pH 7.4, 50 mM MgCl2, 0.5 mM MnCl2, 0.2 mM Na3VO4, 1 mM DTT), and 1 μL per well of compound to be tested was added, then 50 μL diluted solution of c-Met kinase domain recombinant protein in reaction buffer was added to initiate the reaction, each test was setup with two wells of ATP free control. Reaction was performed in a 37° C. shaker (100 rpm) for 1 hour. Liquid in the wells was discarded, and the plate was washed three times with T-PBS.
Antibody PY99 was added at 100 μL per well (the antibody was 1:500 diluted in T-PBS containing 5 mg/mL BSA), incubated in a 37° C. shaker for 0.5 hour. Liquid in the wells was discarded, and the plate was washed three times with T-PBS.
Goat anti mouse secondary antibody labeled with horseradish peroxidase was added at 100 μL per well (the antibody was 1:2000 diluted in T-PBS containing 5 mg/mL BSA), incubated in a 37° C. shaker for 0.5 hour. Liquid in the wells was discarded, and the plate was washed three times with T-PBS.
Reaction was terminated by adding 50 μL per well of 2M H2SO4, the plate was read at 490 nm using a VERSAmax microplate reader with tunable wavelength.
as §2

inhibition at 0.1 µM [1] [%]	inhibition at 1 µM [1] [%]	inhibition at 10 µM [1] [%]	inhibition at 10 µM [2] [%]	IC50 [1] [nM]	Structure (SMILES)
39.9	54.7	74.3	74.3		Cn1cc(-c2cnc3cnn(S(=O)(=O)c4ccccc4C(F)(F)F)c3c2)cn1 [Compound 14, 1-(2-trifluoromethylbenzenesulfonyl)-6-[(1-methyl)-4-pyrazolyl]-1-H-pyrazolo[4,3-b]pyridine]
	30.5	77.4	> 83.1		CC(C)Oc1ccc(-c2ccc3ncc(S(=O)(=O)n4ncc5ncc(-c6cnn(C)c6)cc54)n3c2)cc1 [Example 79]
26.9	52.7	65.1	65.1	3.7 ± 1.4	Cn1cc(-c2cnc3cnn(S(=O)(=O)c4cnc5ncccn45)c3c2)cn1 [Example 23, 1-(imidazo[1,2-a]pyrimidine-3-sulfonyl)-6-[(1-methyl)-4-pyrazolyl]-1-H-pyrazolo[4,3-b]pyridine]
	41.2	73.5	> 71.5		Cn1cc(-c2cnc3cnn(S(=O)(=O)c4cnc5ccc(-c6ccccc6C(F)(F)F)cn45)c3c2)cn1 [Example 84, 1-{[6-(2-trifluoromethylphenyl)-imidazo[1,2-a]pyridine]-3-sulfonyl}-6-[(1-methyl)-4-pyrazolyl]-1-H-pyrazolo[4,3-b]pyridine]
39.9	47.3	53.7	53.7		O=S(=O)(c1cnc2ccccn12)n1ncc2ncc(-c3ccc4ccccc4c3)cc21 [Example 33, 1-(imidazo[1,2-a]pyridine-3-sulfonyl)-6-(2-naphthyl)-1-H-pyrazolo[4,3-b]pyridine]
54.4	63.8	77.7	> 78.5		Cn1cc(-c2cnc3cnn(S(=O)(=O)c4cnc5ccc(-c6cnn(C7CCNCC7)c6)cn45)c3c2)cn1 [Example 82, 1-{[6-([1-(4-piperidinyl)]-4-pyrazolyl)-imidazo[1,2-a]pyridine]-3-sulfonyl}-6-[(1-methyl)-4-pyrazolyl]-1-H-pyrazolo[4,3-b]pyridine chloride]
100	100		> 64.5	0.3 ± 0.1	CNC(=O)c1ccc(-c2ccc3ncc(S(=O)(=O)n4ncc5ncc(-c6cnn(C)c6)cc54)n3c2)cc1F [Example 101, 1-{(6-(3-fluoro-4-methylaminocarbonylphenyl)-imidazo[1,2-a]pyridine)-3-sulfonyl}-6-[(1-methyl)-4-pyrazolyl]-1-H-pyrazolo[4,3-b]pyridine]
45.6	60	66.3	66.3		O=S(=O)(c1cnc2ccccn12)n1ncc2ncc(-c3ccc4c(c3)OCCO4)cc21 [Example 36, 1-(imidazo[1,2-a]pyridine-3-sulfonyl)-6-[6-(1,4-benzodioxanyl)]-1-H-pyrazolo[4,3-b]pyridine]
52.3	57.7	59.6	79.9		CC(C)N1CCC(n2cc(-c3cnc4cnn(S(=O)(=O)c5cnc6ccc(C(F)(F)F)cn56)c4c3)cn2)CC1 [Example 69]
60.8	65.1	69.8	79.3		O=S(=O)(c1cnc2ccc(C(F)(F)F)cn12)n1ncc2ncc(-c3cnn(C4CCNCC4)c3)cc21 [Example 65]
		84.6	84.6		Cn1cc(-c2cnc3cnn(S(=O)(=O)c4ccccc4[N+](=O)[O-])c3c2)cn1 [Compound 3, 1-(2-nitrobenzenesulfonyl)-6-[(1-methyl)-4-pyrazolyl]-1-H-pyrazolo[4,3-b]pyridine]
25.2	56.1	73.2	73.2		Cn1cc(-c2cnc3cnn(S(=O)(=O)c4cccc(C(F)(F)F)c4)c3c2)cn1 [Compound 16, 1-(3-trifluoromethylbenzenesulfonyl)-6-[(1-methyl)-4-pyrazolyl]-1-H-pyrazolo[4,3-b]pyridine]
60	63.8	65.2	65.2	33.9 ± 6.9	Cn1cc(-c2cnc3cnn(S(=O)(=O)c4cnc5ccc(C(F)(F)F)cn45)c3c2)cn1 [Example 26, 1-[(6-trifluoromethyl-imidazo[1,2-a]pyridine)-3-sulfonyl]-6-[(1-methyl)-4-pyrazolyl]-1-H-pyrazolo[4,3-b]pyridine]
45	66.6	77.8	> 67.9		Cn1cc(-c2cnc3cnn(S(=O)(=O)c4cnc5ccc(-c6cccc(F)c6)cn45)c3c2)cn1 [Example 86, 1-{[6-(3-fluorophenyl)-imidazo[1,2-a]pyridine]-3-sulfonyl}-6-[(1-methyl)-4-pyrazolyl]-1-H-pyrazolo[4,3-b]pyridine]
2.1	33.8	57.5	57.5		Cn1cc(-c2cnc3cnn(S(=O)(=O)c4cccc(F)c4)c3c2)cn1 [Compound 5, 1-(3-fluorobenzenesulfonyl)-6-[(1-methyl)-4-pyrazolyl]-1-H-pyrazolo[4,3-b]pyridine]
68.5	73.4	83.8	62	0.1 ± 0.01	Cn1cc(-c2cnc3cnn(S(=O)(=O)c4cnc5ccc(-c6ccccc6)cn45)c3c2)cn1 [Example 71, 1-[(6-phenyl-imidazo[1,2-a]pyridine)-3-sulfonyl]-6-[(1-methyl)-4-pyrazolyl]-1-H-pyrazolo[4,3-b]pyridine]
52.9	52	64.2	64.2		O=S(=O)(c1cnc2ccccn12)n1ncc2ncc(-c3ccc(C(F)(F)F)cc3)cc21 [Example 32, 1-(imidazo[1,2-a]pyridine-3-sulfonyl)-6-(4-trifluoromethylphenyl)-1-H-pyrazolo[4,3-b]pyridine]

Structure (SMILES)	inhibition at 0.1 µM [1] [%]	inhibition at 1 µM [1] [%]	inhibition at 10 µM [1] [%]	inhibition at 10 µM [2] [%]	IC50 [1] [nM]
CC(C)(C)OC(=O)N1CCC(n2cc(-c3cnc4cnn(S(=O)(=O)c5cnc6ccc(-c7cnn(C8CCN(C(=O)OC(C)(C)C)CC8)c7)cn56)c4c3)cn2)CC1 [Example 68, 1-{(6-{{1-[(1-t-butoxycarbonyl)-4-piperidinyl]}-4-pyrazolyl}-imidazo[1,2-a]pyridine)-3-sulfonyl}-6-{{1-[(1-t-butoxycarbonyl)-4-piperidinyl]}-4-pyrazolyl}-1-H-pyrazolo[4,3-b]pyridine]	50.2	55.8	62	69.8	
CC(C)(C)OC(=O)N1CC=C(c2cnc3cnn(S(=O)(=O)c4cnc5ccccn45)c3c2)CC1 [Example 35, 1-(imidazo[1,2-a]pyridine-3-sulfonyl)-6-[(1-t-butoxycarbonyl)-4-(1,2,3,6-tetrahydropyridinyl)]-1-H-pyrazolo[4,3-b]pyridine]	51.1	53.2	62.5	62.5	
CC(C)(C)OC(=O)N1CCC(n2cc(-c3cnc4cnn(S(=O)(=O)c5cnc6ncccn56)c4c3)cn2)CC1 [Example 52, 1-(imidazo[1,2-a]pyrimidine-3-sulfonyl)-6-{{1-[(1-t-butoxycarbonyl)-4-piperidinyl]}-4-pyrazolyl}-1-H-pyrazolo[4,3-b]pyridine]	24.5	50.3	54.5	54.5	

Source: patent US9988381B2, “Five-member-heterocycle fused pyridine compounds, method of producing the same, and use thereof” (SHANGHAI INSTITUTE OF MATERIA MEDICA, CHINESE ACADEMY OF …, priority 2013, dated 2018)
